Data taken from patent US20140335186A1, “METHODS AND COMPOSITIONS FOR ENHANCING CD4+ REGULATORY T CELLS” (Selecta Biosciences, Inc., priority 2013, published 2014).

Test system: CD4+ OTII cells (CD25+Fox3p+ regulatory T cell phenotype)
Assay: Induction of CD4+ regulatory T cells: CD4+ OTII cells transferred into SJL mice, flow cytometry of popliteal lymph nodes
Format: in vivo, mouse
Details: s.c. hind limbs on days 1 and 5, popliteal lymph nodes on day 10
Description: In order to monitor the determine the effect of immunosuppressant attached to synthetic nanocarriers on the development of CD4+ regulatory T cells, CD4+ T cells were purified from the transgenic mouse strain OTII using negative selection by magnetic-activated cell sorting (MACS). OTII mice express a T cell receptor specific for the chicken ovalbumin peptide OVA323-339. Following isolation, 4×10^6 CD4+ OTII cells were transferred into SJL mice congenically expressing the pan-leukocyte marker CD45.1 (Ptprc^a) (SJL-Prprc^a/BoyAiTac).
On day 10, 5 days following the second administration of the indicated treatment, the animlas were sacrified and the popliteal lymph nodes that drain the site of injection were harvested to analyze developmental status and quantify the CD4+ OTII cells that had been transferred into the SJL mice by flow cytometry.

Substance: fOPII.323: free chicken ovalbumin peptide OVA323-339 (KISQAVHAAHAEINEAG; UniProt P01012 323-339, looked up, fragment)
- proportion of transferred OTII cells with regulatory T cell phenotype (CD25+Fox3p+), FIG. 1: detectable but not statisitically significant increase
